Test [1] concerns the target Carbonic anhydrase 1 (Homo sapiens, UniProt P00915). The experiment in a line: Inhibition of human carbonic anhydrase 1 after 6 hrs by Lineweaver-Burk plot analysis.
Test [2] addresses Carbonic anhydrase 2 (Homo sapiens, UniProt P00918). In words: Inhibition of human carbonic anhydrase 2 after 6 hrs by Lineweaver-Burk plot analysis.

Chain of Carbonic anhydrase 1 (P00915 whole entry): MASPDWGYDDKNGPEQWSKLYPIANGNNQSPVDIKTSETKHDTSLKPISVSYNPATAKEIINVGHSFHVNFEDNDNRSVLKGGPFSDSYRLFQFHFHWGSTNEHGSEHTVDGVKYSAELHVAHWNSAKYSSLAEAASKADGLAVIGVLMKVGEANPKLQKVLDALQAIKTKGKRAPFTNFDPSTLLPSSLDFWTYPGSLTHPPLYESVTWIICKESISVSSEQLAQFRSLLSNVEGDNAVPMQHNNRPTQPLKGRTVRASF

A word on the Ki: it is the equilibrium dissociation constant of an inhibitor or competing ligand from its target. A lower Ki goes with a stronger hold on the target. Turning to `Cc1ccc(C(=O)C(O)(O)C(F)(F)F)cc1`, the Ki in test [1] stood at 410 µM; in test [2], 9 µM.

For the origin of these results see ChEMBL document CHEMBL1759934, “Virtual screening-driven identification of human carbonic anhydrase inhibitors incorporating an original, new pharmacophore” (Bioorg Med Chem Lett, 2011).
